Like-named read-outs stand apart in the source and are kept apart here.
Tests used:
FCA-induced arthritis [1] = settings: for SGOT / SGPT / ALP: FCA rats, serum; for liver damage: rat, in vivo
Description: (§1) Chronic inflammation induced by Freund's Complete Adjuvant contains a suspension of heat-killed Mycobacterium tuberculosis in the vehicle (Chondrex, Labex Corporation). 100 μL of FCA (10 mg/mL) was injected intradermally to the left-hand paw of SD rats[42]. […] Induction of inflammation became chronic by 9–12 days and then rats were divided into 7 groups having 6 rats in each group. Everything possible was done to minimize the suffering of experimental animals. Minimum number of rats only were drafted to generate reliable data. 42 rats were randomly allocated into seven groups (6 × 7).
(§2) Group I (n = 6) served as normal rats that received an equal volume of vehicle control. Group II (n = 6) was arthritic model control treated with vehicle only. Group III (n = 6) was arthritic control which received the diclofenac (10 mg.kg^–1). Groups IV (n = 6), V (n = 6), VI (n = 6) and VII (n = 6) were treated with a low and high dose of methyl gallate (20 mg.kg^–1, 40 mg.kg^–1) and MGSD 1 (1 mg.kg^–1, 10 mg.kg^–1). The drugs were orally administered through oral gavage daily in PBS vehicle for 28 days.
Blood was drawn from jugular vein[43] and collected in heparinized tubes and used for further analysis. By using Horiba 5-part hematology analyzer the blood parameters like RBC, WBC, neutrophil and hemoglobin were analyzed. Serum parameters were analyzed using Stat Fax autoanalyzer. Serum glutamic pyruvic transaminase (SGPT), serum glutamic oxaloacetic transaminase (SGOT) and alkaline phosphatase (ALP) were determined using standard diagnostic kits (Proton, Accurex).

FCA-induced arthritis [2] = experiment: FCA-induced arthritis: organ index (liver, spleen); format: in vivo, Sprague–Dawley (SD) rats; settings: FCA rats, end of experiment
Description: as §1, §2
At the end of the experiments, animals were euthanized using ketamine injection. The liver and spleen were removed at the end of the experiment and weighed. The index of the organs was expressed as the percentage (%) wet weight of organ versus body weight. The organ indexes were calculated by using the following formula Organindex=Weightoforgang/Bodyweightg×100.

COX-2 = experiment: RT-PCR gene expression in hind paw tissue, COX-2; format: in vivo, Sprague–Dawley (SD) rats; settings: normalized to GAPDH, vs arthritic control
Description: This study aimed to gain insight into the mechanism by which methyl gallate and its derivative influence the chronic inflammatory condition in the rat model. In the present study, the inflammatory pathway genes were identified, and their relative expression was quantified (COX-2 and TNF α). RNA was isolated from the hind paw tissue of rats and its concentration was analyzed through Qubit fluorometer. RNA was isolated by Trizol method and agarose gel electrophoresis performed. After the isolation protocol, complementary DNA was synthesized and followed the quantitative PCR with standard conditions. Primers of the targets were designed in Primer3Plus and primer validation was carried out. PCR annealing temperatures were standardized to amplify the specific genes. All the primer pairs were highly specific and resolved into single bands corresponding to amplification products of expected size on 2% agarose gel electrophoresis. Primer specificity was further confirmed by a single distinct peak on the melt curve. The specificity of primer pairs ensures the sequence quality of respective gene templates.
The relative expression of inflammatory genes was identified through quantitative RT-PCR. […] The concentration of RNA isolated was measured in the Qubit fluorometer with the RNA HS assay kit. cDNA was synthesized by reverse transcription using total RNA (2 μg) as a template. […]

| Compound | SGOT (FCA-induced arthritis [1]; 20 mg.kg^−1 oral) | SGPT (FCA-induced arthritis [1]; 20 mg.kg^−1 oral) | SGOT (FCA-induced arthritis [1]; 40 mg.kg^−1 oral) | SGPT (FCA-induced arthritis [1]; 40 mg.kg^−1 oral) | liver damage (FCA-induced arthritis [1]) | Organ index (%) Liver (FCA-induced arthritis [2]; 20 mg.kg^−1 oral) | Organ index (%) Spleen (FCA-induced arthritis [2]; 20 mg.kg^−1 oral) | Organ index (%) Liver (FCA-induced arthritis [2]; 40 mg.kg^−1 oral) | Organ index (%) Spleen (FCA-induced arthritis [2]; 40 mg.kg^−1 oral) | COX-2 gene expression (COX-2) | ALP (FCA-induced arthritis [1]; 1 mg.kg^−1 oral) | SGOT (FCA-induced arthritis [1]; 1 mg.kg^−1 oral) | SGPT (FCA-induced arthritis [1]; 1 mg.kg^−1 oral) | ALP (FCA-induced arthritis [1]; 10 mg.kg^−1 oral) | SGOT (FCA-induced arthritis [1]; 10 mg.kg^−1 oral) | SGPT (FCA-induced arthritis [1]; 10 mg.kg^−1 oral) | Organ index (%) Liver (FCA-induced arthritis [2]; 1 mg.kg^−1 oral) | Organ index (%) Spleen (FCA-induced arthritis [2]; 1 mg.kg^−1 oral) | Organ index (%) Liver (FCA-induced arthritis [2]; 10 mg.kg^−1 oral) | Organ index (%) Spleen (FCA-induced arthritis [2]; 10 mg.kg^−1 oral) |
| --- | --- | --- | --- | --- | --- | --- | --- | --- | --- | --- | --- | --- | --- | --- | --- | --- | --- | --- | --- | --- |
| COC(=O)c1cc(O)c(O)c(O)c1 [Methyl gallate] | 243 ± 13.28 IU/L | 94 ± 3.17 IU/L | 183 ± 6.38 IU/L | 102 ± 2.18 IU/L | did not show any liver damage | 3.59 ± 0.03 % | 0.27 ± 0.01% | 3.63 ± 0.11 % | 0.28 ± 0.02% | significant down regulation of COX-2 |  |  |  |  |  |  |  |  |  |  |
| O=C(O)COc1cc(C(=O)O)cc(OCC(=O)O)c1OCC(=O)O [MGSD 1, 2,2′,2″-((5-carboxybenzene-1,2,3-triyl)tris(oxy)) tri acetic acid] |  |  |  |  | did not show any liver damage |  |  |  |  | significant down regulation of COX-2 | 435 ± 72.16 | 162 ± 7.57 IU/L | 85 ± 2.60 IU/L | 309 ± 54.42 | 179 ± 3.52 IU/L | 82 ± 1.73 IU/L | 3.21 ± 0.12% | 0.24 ± 0.00% | 3.18 ± 0.48% | 0.22 ± 0.00% |

Source: paper PMC10313808, “Lipoxygenase inhibitory synthetic derivatives of methyl gallate regulate gene expressions of COX-2 and cytokines to reduce animal model arthritis” (Scientific Reports, 2023)
